Experimental data as given in patent US7781454B2 (priority 2006, dated 2010).
Where a name gives a salt, the structure may show the parent alone. Read-outs that look alike come from different tables or passages of the source.

Columns and labels:
wild type HIV-1 = experiment: Spread assay: inhibition of acute HIV-1 infection of T-lymphoid cells (WT); format: cell-based; details: Human immunodeficiency virus 1, T-lymphoid; wild-type strain; 10% FBS; read-out: Spread (WT) CIC95
Experimental: (§1) Assays for the inhibition of acute HIV-1 infection of T-lymphoid cells (alternatively referred to herein as the “spread assay”) were conducted in accordance with Vacca, J. P. et al., Proc. Natl. Acad. Sci. USA 1994, 91: 4096. The assays tested for inhibition of wild type HIV-1 and of HIV strains containing the Y181C or K103N mutation. […] The compounds of Examples 1 to 4 had CIC95 values of less than 10 micromolar in the assay employing the K103N mutant strain. […] Table C also reports the CIC95 values of the compounds of Examples 1-7, 9-13 and 15-29 obtained in the assays employing the Y181C mutant strain and the K103N mutant strain.

[1] = tested on: HIV strain containing the K103N mutation; experiment: Spread assay: inhibition of HIV replication (K103N mutant strain); format: cell-based; details: Human immunodeficiency virus 1, read-out: Spread (K103N) CIC95
Experimental: as §1

[2] = molecular target: T1, mutant HIV reverse transcriptase (Y181C mutation) (Human immunodeficiency virus type 1 group M subtype B, UniProt P04585, Y768C); experiment: ECL assay for inhibition of mutant HIV reverse transcriptase (Y181C); format: biochemical
T1 construct: against mutant HIV reverse transcriptase; made in house
Experimental: (§2) 100 μL reaction mixtures were initiated with a combination of primer-template substrate ([…]) and dNTPs (0.6 μM dNTPs, 1.25 μM BrdUTP). The heterodimeric nucleic acid substrate was generated by annealing the DNA primer pD500 (described in Shaw-Reid et al., J. Biol. Chem., 278: 2777-2780; obtained from Integrated DNA Technologies) to t500, a 500 nucleotide RNA template created by in vitro transcription (see Shaw-Reid et al., J. Biol. Chem., 278: 2777-2780). After 1 hour incubation at 37° C., reactions were quenched by 10 μL of 1 N NaOH. Microtiter plates were incubated for an additional 30 minutes at room temperature and then neutralized with 10 μL of 1 N HCl. A mixture of detection buffer containing ruthenylated anti-BrdU antibody and streptavidin coated magnetic beads were added to the plate and incubated at room temperature for 1.5 hours prior to quantification via electrochemiluminescence instrument.
(§3) Analogous assays were conducted substituting mutant HIV strains to determine the in vitro inhibition of compounds of the present invention against mutant HIV reverse transcriptase. In one strain the reverse transcriptase has the Y181C mutation and in the other strain the reverse transcriptase has the K103N mutation. The mutations were generated with the QUIKCHANGE site-directed mutagenesis kit (Stratagene).

[3] = molecular target: HIV-1 RT enzyme (wild-type) (Human immunodeficiency virus type 1 group M subtype B, UniProt P04585); experiment: ECL assay for inhibition of HIV reverse transcriptase (WT); format: biochemical
Experimental: as §2

[4] = molecular target: T2, mutant HIV reverse transcriptase (K103N mutation) (Human immunodeficiency virus type 1 group M subtype B, UniProt P04585, K690N); experiment: ECL assay for inhibition of mutant HIV reverse transcriptase (K103N); format: biochemical
T2 construct: against mutant HIV reverse transcriptase; made in house
Experimental: as §2, §3

[5] = tested on: HIV strain containing the Y181C mutation; experiment: Spread assay: inhibition of HIV replication (Y181C mutant strain); format: cell-based; details: Human immunodeficiency virus 1, read-out: Spread (Y181C) CIC95
Experimental: as §1

[6] = Y181C mutant RT, read-out: ECL Assay (Y181C) IC50
[7] = K103N mutant RT, read-out: ECL Assay (K103N) IC50

| SMILES | IC95 (wild type HIV-1) [nM] | IC95 [1] [nM] | IC50 [2, 6] [nM] | IC50 [3] [nM] | IC50 [4, 7] [nM] | IC95 [5] [nM] | IC50 [2] [nM] | IC50 [4] [nM] |
| --- | --- | --- | --- | --- | --- | --- | --- | --- |
| N#Cc1cc(Cl)cc(Oc2c(Cl)ccc3c2nnn3CC(=O)OCc2ccccc2)c1 [Example 15] | > 833 | > 833 | 1.5 | 2.4 | 12 |  |  |  |
| N#Cc1cc(Cl)cc(Oc2c(Cl)ccc3c2nnn3CC(=O)c2cccnc2)c1 [Example 11, 3-chloro-5-{[5-chloro-1-(2-oxo-2-pyridin-3-ylethyl)-1H-1,2,3-benzotriazol-4-yl]oxy}benzonitrile] | 381 | 433 | 30 | 18 | 52 |  |  |  |
| N#Cc1cc(Cl)cc(Oc2c(Cl)ccc3c2nnn3CC(=O)Nc2ccccc2Cl)c1 [Example 12, 2-[5-chloro-4-(3-chloro-5-cyanophenoxy)-1H-1,2,3-benzotriazol-1-yl]-N-(2-chlorophenyl)acetamide] | 23 | 41 | 0.89 | 0.45 | 0.94 | 137 |  |  |
| N#Cc1cc(Cl)cc(Oc2c(Cl)ccc3c2nnn3Cc2n[nH]c3ncccc23)c1 [Example 4, 3-chloro-5-{[5-chloro-1-(1H-pyrazolo[3,4-b]pyridin-3-ylmethyl)-1H-1,2,3-benzotriazol-4-yl]oxy}benzonitrile] | 4 | 5 | 0.44 | 0.24 | 0.41 | 24 |  |  |
| N#Cc1cc(Cl)cc(Oc2c(Cl)ccc3c2cnn3Cc2n[nH]c3c2ccc[n+]3[O-])c1 [Example 5, 3-chloro-5-({5-chloro-1-[(7-oxido-1H-pyrazolo[3,4-b]pyridin-3-yl)methyl]-1H-indazol-4-yl}oxy)benzonitrile] | 11 | 23 | 1.8 | 0.62 | 1.3 | 105 |  |  |
| N#Cc1cc(Cl)cc(Oc2c(Cl)ccc3c2nnn3Cc2n[nH]c3nc(N)ccc23)c1Cl [Example 22, 3-({1-[(6-amino-1H-pyrazolo[3,4-b]pyridin-3-yl)methyl]-5-chloro-1H-1,2,3-benzotriazol-4-yl}oxy)-2,5-dichlorobenzonitrile] | 4 | 9 | 0.79 | 0.52 | 0.8 |  |  |  |
| N#Cc1cc(Cl)cc(Oc2c(Cl)ccc3c2nnn3CCO)c1 [Example 28, 3-chloro-5-{[5-chloro-1-(2-hydroxyethyl)-1H-1,2,3-benzotriazol-4-yl]oxy}benzonitrile] | 557 | > 833 | 77 | 68 | 210 |  |  |  |
| N#Cc1cc(Cl)cc(Oc2c(Cl)ccc3c2c(Cl)nn3Cc2n[nH]c3ncccc23)c1 [Example 2, 3-Chloro-5-{[3,5-dichloro-1-(1H-pyrazolo[3,4-b]pyridin-3-ylmethyl)-1H-indazol-4-yl]oxy}benzonitrile] | 521 | 2090 | 25 | 3.9 | 12 |  |  |  |
| N#Cc1cc(Cl)cc(Oc2c(Cl)ccc3c2nnn3Cc2n[nH]c3ncccc23)c1Cl [Example 19, 2,5-dichloro-3-{[5-chloro-1-(1H-pyrazolo[3,4-b]pyridin-3-ylmethyl)-1H-1,2,3-benzotriazol-4-yl]oxy}benzonitrile] | 7 | 15 | 0.77 | 0.57 | 0.93 | 27 |  |  |
| N#Cc1cc(Cl)cc(Oc2c(Cl)ccc3nn(Cc4nnc(-c5ccccc5)o4)nc23)c1 [Example 24, 3-chloro-5-({5-chloro-2-[(5-phenyl-1,3,4-oxadiazol-2-yl)methyl]-2H-1,2,3-benzotriazol-4-yl}oxy)benzonitrile] | > 833 | > 833 | 47 | 46 | 150 |  |  |  |
| N#Cc1cc(Cl)cc(Oc2c(Cl)ccc3c2nnn3CC(=O)Nc2ccncc2C(F)(F)F)c1 [Example 13, 2-[5-chloro-4-(3-chloro-5-cyanophenoxy)-1H-1,2,3-benzotriazol-1-yl]-N-[3-(trifluoromethyl)pyridin-4-yl]acetamide] | 45 | 151 | 2.4 | 1 | 3 | 382 |  |  |
| CN(Cc1ccccc1Cl)C(=O)Cn1nnc2c(Oc3cc(Cl)cc(C#N)c3)c(Cl)ccc21 [Example 9, N-(2-chlorobenzyl)-2-[5-chloro-4-(3-chloro-5-cyanophenoxy)-1H-1,2,3-benzotriazol-1-yl]-N-methylacetamide] | 770 | 807 | 137 | 61 | 74 |  |  |  |
| NCc1cc(Cl)cc(Oc2c(Cl)ccc3c2nnn3Cc2n[nH]c3ncccc23)c1 [Example 17, (3-chloro-5-{[5-chloro-1-(1H-pyrazolo[3,4-b]pyridin-3-ylmethyl)-1H-1,2,3-benzotriazol-4-yl]oxy}phenyl)methanaminium trifluoroacetate] | 60 | 262 |  | 38 |  | > 833 | 74 | 79 |
| Cc1ccn2c(Cc3n[nH]c4ncccc34)nnc2c1Oc1cc(Cl)cc(C#N)c1 [Example 26, 3-chloro-5-{[7-methyl-3-(1H-pyrazolo[3,4-b]pyridin-3-ylmethyl)[1,2,4]triazolo[4,3-a]pyridin-8-yl]oxy}benzonitrile trifluoroacetate] | > 833 | > 833 |  | 220 |  |  | 1200 | 820 |
| N#Cc1cc(Cl)cc(Oc2c(Cl)ccc3c2nnn3Cc2nnc(-c3ccccc3)o2)c1 [Example 23, 3-chloro-5-({5-chloro-1-[(5-phenyl-1,3,4-oxadiazol-2-yl)methyl]-1H-1,2,3-benzotriazol-4-yl}oxy)benzonitrile] | 96 | > 833 | 3.4 | 6.1 | 10 |  |  |  |
| N#Cc1cc(C#N)cc(Oc2c(Cl)ccc3c2nnn3Cc2n[nH]c3ncccc23)c1 [Example 29, 5-{[5-chloro-1-(1H-pyrazolo[3,4-b]pyridin-3-ylmethyl)-1H-1,2,3-benzotriazol-4-yl]oxy}isophthalonitrile] | 2.5 | 3.1 | 1.3 | 0.9 | 1.4 |  |  |  |
| N#Cc1cc(Cl)cc(Oc2c(Cl)ccc3nn(Cc4n[nH]c5ncccc45)nc23)c1Cl [Example 20, 2,5-dichloro-3-{[5-chloro-2-(1H-pyrazolo[3,4-b]pyridin-3-ylmethyl)-2H-1,2,3-benzotriazol-4-yl]oxy}benzonitrile] | 420 | > 833 | 2.5 | 2.1 | 55 |  |  |  |
| N#Cc1cc(Cl)cc(Oc2c(Cl)ccc3c2nnn3CC(=O)N2CCCC(C(N)=O)C2)c1 (centres unmarked) [Example 16, 1-{[5-chloro-4-(3-chloro-5-cyanophenoxy)-1H-1,2,3-benzotriazol-1-yl]acetyl}piperidine-3-carboxamide] | > 833 | > 833 | 790 | 1100 | > 1800 |  |  |  |
| NCc1cc(Cl)cc(Oc2c(Cl)ccc3c2nnn3Cc2n[nH]c3ncccc23)c1Cl [Example 21, 1-(2,5-dichloro-3-{[5-chloro-1-(1H-pyrazolo[3,4-b]pyridin-3-ylmethyl)-1H-1,2,3-benzotriazol-4-yl]oxy}phenyl)methanamine] | 58 | 192 |  |  | 4.2 | 417 |  |  |
| N#Cc1cc(Cl)cc(Oc2c(Cl)ccc3c2CCCN3Cc2n[nH]c3ncccc23)c1 [Example 27, 3-chloro-5-{[6-chloro-1-(1H-pyrazolo[3,4-b]pyridine-3-ylmethyl)-1,2,3,4-tetrahydroquinolin-5-yl]oxy}benzonitrile] | 3280 | 7730 | 160 | 160 | 640 |  |  |  |
| Cc1ccn2c(Cc3n[nH]c4ncccc34)ncc2c1Oc1cc(Cl)cc(C#N)c1 [Example 25, 3-chloro-5-{[7-methyl-3-(1H-pyrazolo[3,4-b]pyridin-3-ylmethyl)imidazo[1,5-a]pyridin-8-yl]oxy}benzonitrile trifluoroacetate] | 115 | 362 |  | 20 |  |  | 33 | 37 |
